pIC50: −log10 of the molar value. Entries after “also recorded” stand apart in the source; their conditions may differ. Where two headings read alike, the source gives them in different places. Values belong to the compound of their own block, whether it stands above or below them.
Legend:
[1] = biological target: human JAK2 (a.a. 828-1132) (Homo sapiens (Human), UniProt O60674); experiment: In vitro JAK kinase assay (HTRF), JAK2; type: biochemical; conditions: JAK2/JAK1 IC50 ratio, 1 mM ATP
Description: (§1) The catalytic activity of JAK1, JAK2, or JAK3 was assayed by measuring the phosphorylation of a biotinylated peptide. The phosphorylated peptide was detected by homogenous time resolved fluorescence (HTRF). […] Reactions are carried out at room temperature for 1 hour and then stopped with 20 μL 45 mM EDTA, 300 nM SA-APC, 6 nM Eu-Py20 in assay buffer (Perkin Elmer, Boston, MA). Binding to the Europium labeled antibody takes place for 40 minutes and HTRF signal was measured on a Fusion plate reader (Perkin Elmer, Boston, MA).

[2] = system: acute GVHD (aGVHD); conditions: patients, cited from earlier work
[3] = system: sclerodermatous chronic GVHD; experiment: Example 1: murine model of sclerodermatous chronic GVHD, itacitinib and belumosudil; type: in vivo, C57Bl/6 mice; conditions: PO d21-56; itacitinib 120 mg/kg BID, belumosudil 150 mg/kg QD; FIG. 1
Description: The effects of therapeutic dosing of a selective JAK1 inhibitor (itacitinib), a ROCK2 inhibitor (belumosudil), and a combination the selective JAK1 inhibitor and ROCK2 inhibitor (itacitinib+belumosudil) combination were tested in a murine model of sclerodermatous chronic GVHD. Sclerodermatous chronic GVHD was induced in C57Bl/6 mice using a single acute dose of 8.5 Gy of total body irradiation on Day −1. On Day 0, recipient mice were given an intravenous injection of a combination of splenocytes and bone marrow cells from donor LP/J mice. Starting at day 21, animals were dosed with vehicle, itacitinib, belumosudil, or the combination of both itacitinib and belumosudil (P.O., B.I.D, see Table 2). All animals were monitored on a daily basis to record weight change, survival and GVHD score (see Table 3). On days 33, 36, 39, 42 and 45 all animals were photographed under isoflurane anesthesia to assess disease severity. [table] [table]

[4] = system: GVHD; conditions: 60 mg/kg per day or 120 mg/kg per day; prophylactic and therapeutic dosing; cited from earlier work
[5] = biological target: human JAK1 (a.a. 837-1142) (Homo sapiens, UniProt P23458); experiment: In vitro JAK kinase assay (HTRF), JAK1; type: biochemical; conditions: 1 mM ATP
Description: as §1

[6] = system: sclerodermatous chronic GVHD; experiment: Example 2: murine model of sclerodermatous chronic GVHD, ruxolitinib and belumosudil; type: in vivo, C57Bl/6 mice; conditions: PO d21-56; ruxolitinib 60 mg/kg BID, belumosudil 150 mg/kg QD; FIG. 3
Description: The effects of therapeutic dosing of a JAK1/2 inhibitor (ruxolitinib), a ROCK2 inhibitor (belumosudil), and a combination of the JAK1/2 inhibitor and ROCK2 inhibitor (ruxolitinib+belumosudil) combination were tested in a murine model of sclerodermatous chronic GVHD. Sclerodermatous chronic GVHD was induced in C57Bl/6 mice using a single acute dose of 8.5 Gy of total body irradiation on Day −1. On Day 0, recipient mice were given an intravenous injection of a combination of splenocytes and bone marrow cells from donor LP/J mice. Starting at day 21, animals were dosed with vehicle, ruxolitinib, belumosudil, or the combination of both ruxolitinib and belumosudil (P.O., B.I.D, see Table 4). All animals were monitored on a daily basis to record weight change, survival and GVHD score (see Table 5). On days 33, 36, 39, 42 and 45 all animals were photographed under isoflurane anesthesia to assess disease severity. [table] [table]

[7] = system: lung cGVHD; conditions: cited from earlier work
[8] = system: chronic GVHD (cGVHD); conditions: patients; cited from earlier work

Chain of human JAK2 (a.a. 828-1132) (O60674 828-1132): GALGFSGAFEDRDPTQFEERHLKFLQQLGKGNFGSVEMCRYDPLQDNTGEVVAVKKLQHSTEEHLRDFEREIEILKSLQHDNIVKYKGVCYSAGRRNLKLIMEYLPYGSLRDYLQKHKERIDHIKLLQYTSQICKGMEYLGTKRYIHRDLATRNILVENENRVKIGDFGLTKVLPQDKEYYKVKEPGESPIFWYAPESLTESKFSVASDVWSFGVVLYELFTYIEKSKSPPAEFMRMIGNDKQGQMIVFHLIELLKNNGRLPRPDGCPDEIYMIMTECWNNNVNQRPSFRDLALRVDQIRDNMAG

JAK2/JAK1 [1]: >10 | pIC50 [5]: > 8.00
SMILES: N#CCC1(n2cc(-c3ncnc4[nH]ccc34)cn2)CN(C2CCN(C(=O)c3ccnc(C(F)(F)F)c3F)CC2)C1 [Compound 1, {1-{1-[3-Fluoro-2-(trifluoromethyl)isonico-tinoyl]piperidin-4-yl}-3-[4-(7H-pyrrolo[2,3-d]pyrimidin-4-yl)-1H-pyrazol-1-yl]azetidin-3-yl}acetonitrile]
clinical efficacy in acute GVHD ([2]; listed as itacitinib): clinical efficacy; also recorded: significant clinical activity | GVHD score compared to vehicle-treated animals [3]: reduction in GVHD scores | GVHD score [4]: improvement in the GVHD score

SMILES: CC(C)NC(=O)COc1cccc(-c2nc(Nc3ccc4[nH]ncc4c3)c3ccccc3n2)c1 [belumosudil, 2-(3-(4-((1H-indazol-5-yl)amino)quinazolin-2-yl)phenoxy)-N-isopropylacetamide, reference compound]
GVHD score compared to vehicle-treated animals [3]: reduction in GVHD scores | GVHD score compared to vehicle-treated animals [6]: no benefit

SMILES: N#CC[C@H](C1CCCC1)n1cc(-c2ncnc3[nH]ccc23)cn1 [ruxolitinib, (R)-3-(4-(7H-pyrrolo[2,3-d]pyrimidin-4-yl)-1H-pyrazol-1-yl)-3-cyclopentylpropanenitrile]
clinical efficacy in acute GVHD [2]: clinical efficacy | increase in FEV1 ([7]; 1 patient): 9% | responses ([7]; 5 pediatric patients (4 evaluable) with lung cGVHD): 2 | patients able to wean steroids completely ([7]; 5 pediatric patients): Four out of five | decrease of the steroid requirement ([7]; final patient): > 50% | clinical efficacy in chronic GVHD [8]: clinical efficacy | GVHD score compared to vehicle-treated animals [6]: numerical reduction in GVHD scores
